# Results reported in patent publication US20250282794A1 (CURADEV PHARMA LTD, priority 2022, published 2025).
# Molecular target: recombinant full length HPK-1 enzyme (Homo sapiens (Human), UniProt Q92918)
# Assay: HPK-1 biochemical enzyme assay (ADP-Glo kinase inhibition)
# Conditions: recombinant full length HPK-1 6.8 nM, 10 μM ATP, 12.5 μM MBP, 30 mins at 25° C.
# Method: HPK-1 biochemical enzyme assay
# Compound inhibitory potency was measured in an HPK-1 kinase inhibition assay. Briefly, recombinant full length HPK-1 enzyme (6.8 nM) was incubated with 10 μM ATP and 12.5 μM swine myelin basic protein (MBP) for 30 mins. at 25° C. in the presence of various concentrations of test compound or vehicle in 40 mM Tris.Cl pH7.4 buffer containing 20 mM MgCl2, 50 μM DTT and 0.1 mg/mL BSA. Reactions were quenched and reaction mixtures were then analyzed by an ADP-Glo kit which measures the formed ADP. The percent inhibition was calculated from the substrate conversion considering no enzyme control reactions for 100% inhibition and vehicle only reactions for 0% inhibition. The compounds were dissolved in DMSO and evaluated at 10 concentrations to determine an IC50 value.
# In the below table A denotes an HPK-1 IC50≤10 nM, B denotes an HPK-1 IC50>10 nM but≤100 nM and C denotes an HPK-1 IC50>100 nM but≤1000 nM.
# Chain of recombinant full length HPK-1 enzyme (Q92918 whole entry, species assumed): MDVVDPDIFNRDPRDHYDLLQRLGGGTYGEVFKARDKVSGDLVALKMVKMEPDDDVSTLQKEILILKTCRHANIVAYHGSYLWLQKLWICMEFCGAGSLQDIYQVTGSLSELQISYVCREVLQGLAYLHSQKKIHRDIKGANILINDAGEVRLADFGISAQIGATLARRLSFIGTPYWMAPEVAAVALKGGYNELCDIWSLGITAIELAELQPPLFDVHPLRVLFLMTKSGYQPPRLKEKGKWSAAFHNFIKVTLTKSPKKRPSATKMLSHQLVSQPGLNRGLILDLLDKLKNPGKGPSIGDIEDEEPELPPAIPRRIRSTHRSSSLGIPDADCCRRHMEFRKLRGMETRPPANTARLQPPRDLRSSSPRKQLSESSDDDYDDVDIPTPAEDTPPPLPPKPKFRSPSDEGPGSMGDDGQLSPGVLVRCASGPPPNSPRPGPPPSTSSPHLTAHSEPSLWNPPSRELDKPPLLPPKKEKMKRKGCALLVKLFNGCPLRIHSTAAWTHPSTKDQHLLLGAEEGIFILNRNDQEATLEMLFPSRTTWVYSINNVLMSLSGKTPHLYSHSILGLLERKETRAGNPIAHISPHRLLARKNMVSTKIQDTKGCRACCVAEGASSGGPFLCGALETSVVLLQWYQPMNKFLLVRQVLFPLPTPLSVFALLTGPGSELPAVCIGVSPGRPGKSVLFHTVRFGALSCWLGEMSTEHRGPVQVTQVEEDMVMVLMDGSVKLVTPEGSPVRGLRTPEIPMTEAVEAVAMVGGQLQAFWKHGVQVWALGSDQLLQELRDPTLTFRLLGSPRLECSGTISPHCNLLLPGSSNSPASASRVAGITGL
row,IC50,SMILES
1,10 to 100 nM,"Cc1c(Nc2cc[nH]c(=O)c2C(=O)Nc2ccc(-c3cccnc3)cc2)cnc2c1NCCO2 [Example 151, 4-((8-methyl-2,3-dihydro-1H-pyrido[2,3-b][1,4]oxazin-7-yl)amino)-2-oxo-N-(4-(pyridin-3-yl)phenyl)-1,2-dihydropyridine-3-carboxamide]"
2,10 to 100 nM,"Cc1c(Nc2cc[nH]c(=O)c2C(=O)Nc2ccc(-c3ccncc3)cc2)cnc2c1NCCO2 [Example 152, 4-((8-methyl-2,3-dihydro-1H-pyrido[2,3-b][1,4]oxazin-7-yl)amino)-2-oxo-N-(4-(pyridin-4-yl)phenyl)-1,2-dihydropyridine-3-carboxamide]"
3,≤ 10 nM,"Cc1c(Nc2cc[nH]c(=O)c2C(=O)Nc2ccc(N3CCCC(N)C3)cc2)cnc2c1NCCO2 (stereo not shown) [Example 153, N-(4-(3-aminopiperidin-1-yl)phenyl)-4-((8-methyl-2,3-dihydro-1H-pyrido[2,3-b][1,4]oxazin-7-yl)amino)-2-oxo-1,2-dihydropyridine-3-carboxamide]"
4,≤ 10 nM,"Cc1c(Nc2cc[nH]c(=O)c2C(=O)Nc2ccc(N3CCC(N)CC3)cc2)cnc2c1NCCO2 [Example 154, N-(4-(4-aminopiperidin-1-yl)phenyl)-4-((8-methyl-2,3-dihydro-1H-pyrido[2,3-b][1,4]oxazin-7-yl)amino)-2-oxo-1,2-dihydropyridine-3-carboxamide]"
5,10 to 100 nM,"Cc1c(Nc2cc[nH]c(=O)c2C(=O)Nc2ccc(N3CCN(CCO)CC3)cc2)cnc2c1NCC(C)O2 (stereo not shown) [Example 156, 4-((3,8-dimethyl-2,3-dihydro-1H-pyrido[2,3-b][1,4]oxazin-7-yl)amino)-N-(4-(4-(2-hydroxyethyl)piperazin-1-yl)phenyl)-2-oxo-1,2-dihydropyridine-3-carboxamide]"
6,10 to 100 nM,"Cc1c(Nc2cc[nH]c(=O)c2C(=O)Nc2ccc(N3CCC(F)(F)CC3)cc2)cnc2c1NCCO2 [Example 161, N-(4-(4,4-difluoropiperidin-1-yl)phenyl)-4-((8-methyl-2,3-dihydro-1H-pyrido[2,3-b][1,4]oxazin-7-yl)amino)-2-oxo-1,2-dihydropyridine-3-carboxamide]"
7,10 to 100 nM,"Cc1c(Nc2cc[nH]c(=O)c2C(=O)Nc2ccc3c(c2)CN(C)CC3)cnc2c1NCCO2 [Example 163, N-(2-Methyl-1,2,3,4-tetrahydroisoquinolin-7-yl)-4-((8-methyl-2,3-dihydro-1H-pyrido[2,3-b][1,4]oxazin-7-yl)amino)-2-oxo-1,2-dihydropyridine-3-carboxamide]"
8,10 to 100 nM,"Cc1c(Nc2cc[nH]c(=O)c2C(=O)Nc2ccc(N3CCN(C)CC3)cc2)cnc2c1NCC(C)O2 (stereo not shown) [Example 164, 4-((3,8-dimethyl-2,3-dihydro-1H-pyrido[2,3-b][1,4]oxazin-7-yl)amino)-N-(4-(4-methylpiperazin-1-yl)phenyl)-2-oxo-1,2-dihydropyridine-3-carboxamide]"
9,≤ 10 nM,"Cc1c(Nc2cc[nH]c(=O)c2C(=O)Nc2ccc(N3CCN(C)CC3)cc2)cnc2c1NCC(C)O2 (stereo not shown) [Example 165, 4-((3,8-dimethyl-2,3-dihydro-1H-pyrido[2,3-b][1,4]oxazin-7-yl)amino)-N-(4-(4-methylpiperazin-1-yl)phenyl)-2-oxo-1,2-dihydropyridine-3-carboxamide]"
10,≤ 10 nM,"Cc1c(Nc2cc[nH]c(=O)c2C(=O)Nc2ccc(N3CCN(C4CC4)CC3)cc2)cnc2c1NCCO2 [Example 167, N-(4-(4-Cyclopropylpiperazin-1-yl)phenyl)-4-((8-methyl-2,3-dihydro-1H-pyrido[2,3-b][1,4]oxazin-7-yl)amino)-2-oxo-1,2-dihydropyridine-3-carboxamide]"
11,≤ 10 nM,"Cc1c(Nc2cc[nH]c(=O)c2C(=O)Nc2ccc3c(c2)OCC2CN(C)CCN32)cnc2c1NCCO2 (stereo not shown) [Example 168, N-(3-Methyl-1,2,3,4,4a,5-hexahydrobenzo[b]pyrazino[1,2-d][1,4]oxazin-8-yl)-4-((8-methyl-2,3-dihydro-1H-pyrido[2,3-b][1,4]oxazin-7-yl)amino)-2-oxo-1,2-dihydropyridine-3-carboxamide]"
12,≤ 10 nM,"Cc1c(Nc2cc[nH]c(=O)c2C(=O)Nc2ccc(N3CCN(C(C)C)CC3)cc2)cnc2c1NCC(C)O2 (stereo not shown) [Example 169, 4-((3,8-dimethyl-2,3-dihydro-1H-pyrido[2,3-b][1,4]oxazin-7-yl)amino)-N-(4-(4-isopropylpiperazin-1-yl)phenyl)-2-oxo-1,2-dihydropyridine-3-carboxamide]"
13,≤ 10 nM,"Cc1c(Nc2cc[nH]c(=O)c2C(=O)Nc2ccc(N3CCN(CC(C)O)CC3)cc2)cnc2c1NCCO2 (stereo not shown) [Example 170, N-(4-(4-(2-hydroxypropyl)piperazin-1-yl)phenyl)-4-((8-methyl-2,3-dihydro-1H-pyrido[2,3-b][1,4]oxazin-7-yl)amino)-2-oxo-1,2-dihydropyridine-3-carboxamide]"
14,≤ 10 nM,"COCCN1CCN(c2ccc(NC(=O)c3c(Nc4cnc5c(c4C)NCC(C)O5)cc[nH]c3=O)cc2)CC1 (stereo not shown) [Example 171, 4-((3,8-dimethyl-2,3-dihydro-1H-pyrido[2,3-b][1,4]oxazin-7-yl)amino)-N-(4-(4-(2-methoxyethyl)piperazin-1-yl)phenyl)-2-oxo-1,2-dihydropyridine-3-carboxamide]"
15,10 to 100 nM,"Cc1c(Nc2cc[nH]c(=O)c2C(=O)Nc2ccc(N3CCN(C)CC3)cc2)cnc2c1NCC(C)(C)O2 [Example 172, N-(4-(4-methylpiperazin-1-yl)phenyl)-2-oxo-4-((3,3,8-trimethyl-2,3-dihydro-1H-pyrido[2,3-b][1,4]oxazin-7-yl)amino)-1,2-dihydropyridine-3-carboxamide]"
16,10 to 100 nM,"COCCN1CCN(c2ccc(NC(=O)c3c(Nc4cnc5c(c4C)NCC(C)(C)O5)cc[nH]c3=O)cc2)CC1 [Example 173, N-(4-(4-(2-methoxyethyl)piperazin-1-yl)phenyl)-2-oxo-4-((3,3,8-trimethyl-2,3-dihydro-1H-pyrido[2,3-b][1,4]oxazin-7-yl)amino)-1,2-dihydropyridine-3-carboxamide]"
17,≤ 10 nM,"Cc1c(Nc2cc[nH]c(=O)c2C(=O)Nc2ccc(N3CCN(Cc4ccn[nH]4)CC3)cc2)cnc2c1NCCO2 [Example 174, N-(4-(4-((1H-pyrazol-5-yl)methyl)piperazin-1-yl)phenyl)-4-((8-methyl-2,3-dihydro-1H-pyrido[2,3-b][1,4]oxazin-7-yl)amino)-2-oxo-1,2-dihydropyridine-3-carboxamide]"
18,≤ 10 nM,"Cc1c(Nc2cc[nH]c(=O)c2C(=O)Nc2ccc(N3CCN(CCCO)CC3)cc2)cnc2c1NCCO2 [Example 175, N-(4-(4-(3-hydroxypropyl)piperazin-1-yl)phenyl)-4-((8-methyl-2,3-dihydro-1H-pyrido[2,3-b][1,4]oxazin-7-yl)amino)-2-oxo-1,2-dihydropyridine-3-carboxamide]"
19,≤ 10 nM,"Cc1c(Nc2cc[nH]c(=O)c2C(=O)Nc2ccc(N3CCN(CC4CCC(=O)N4)CC3)cc2)cnc2c1NCCO2 (stereo not shown) [Example 176, 4-((8-methyl-2,3-dihydro-1H-pyrido[2,3-b][1,4]oxazin-7-yl)amino)-2-oxo-N-(4-(4-((5-oxopyrrolidin-2-yl)methyl)piperazin-1-yl)phenyl)-1,2-dihydropyridine-3-carboxamide]"
20,≤ 10 nM,"Cc1c(Nc2cc[nH]c(=O)c2C(=O)Nc2ccc(N3CCN(C(C)C)CC3)cc2)cnc2c1NCC(C)(C)O2 [Example 177, N-(4-(4-isopropylpiperazin-1-yl)phenyl)-2-oxo-4-((3,3,8-trimethyl-2,3-dihydro-1H-pyrido[2,3-b][1,4]oxazin-7-yl)amino)-1,2-dihydropyridine-3-carboxamide]"
21,≤ 10 nM,"Cc1c(Nc2cc[nH]c(=O)c2C(=O)Nc2ccc(N3CCN(CCC#N)CC3)cc2)cnc2c1NCCO2 [Example 178, N-(4-(4-(2-cyanoethyl)piperazin-1-yl)phenyl)-4-((8-methyl-2,3-dihydro-1H-pyrido[2,3-b][1,4]oxazin-7-yl)amino)-2-oxo-1,2-dihydropyridine-3-carboxamide]"
22,≤ 10 nM,"Cc1c(Nc2cc[nH]c(=O)c2C(=O)Nc2ccc(N3CCN(C4CCC4)CC3)cc2)cnc2c1NCCO2 [Example 179, N-(4-(4-cyclobutylpiperazin-1-yl)phenyl)-4-((8-methyl-2,3-dihydro-1H-pyrido[2,3-b][1,4]oxazin-7-yl)amino)-2-oxo-1,2-dihydropyridine-3-carboxamide]"
23,10 to 100 nM,"Cc1c(Nc2cc[nH]c(=O)c2C(=O)Nc2ccc3c(c2)CN(C)C(=O)C3)cnc2c1NCCO2 [Example 180, 4-((8-methyl-2,3-dihydro-1H-pyrido[2,3-b][1,4]oxazin-7-yl)amino)-N-(2-methyl-3-oxo-1,2,3,4-tetrahydroisoquinolin-7-yl)-2-oxo-1,2-dihydropyridine-3-carboxamide]"

row,SMILES,IC50
1,"Cc1c(Nc2cc[nH]c(=O)c2C(=O)Nc2ccc(N3CC4CCC(C3)N4C)cc2)cnc2c1NCCO2 [Example 162, 4-((8-methyl-2,3-dihydro-1H-pyrido[2,3-b][1,4]oxazin-7-yl)amino)-N-(4-(8-methyl-3,8-diazabicyclo[3.2.1]octan-3-yl)phenyl)-2-oxo-1,2-dihydropyridine-3-carboxamide]",≤ 10 nM
2,"Cc1c(Nc2cc[nH]c(=O)c2C(=O)Nc2ccc(N3CC4CCC(C3)N4C)cc2)cnc2c1NCC(C)O2 (stereo not shown) [Example 181, 4-((3,8-dimethyl-2,3-dihydro-1H-pyrido[2,3-b][1,4]oxazin-7-yl)amino)-N-(4-(8-methyl-3,8-diazabicyclo[3.2.1]octan-3-yl)phenyl)-2-oxo-1,2-dihydropyridine-3-carboxamide]",10 to 100 nM
